# According to US6960456B1, “Method for preparing conjugated linoleic acid” (Valio Ltd., priority 1999, dated 2005):
# Tests used:
# [1] = tested on: Propionibacterium freudenreichii ssp. shermanii JS (PJS); experiment: Growth of PJS strain in MRS medium containing linoleic acid (turbidity, Klett meter); type: cell-based; conditions: for Growth (cell density of the culture as turbidity, Klett meter): 600 μg/ml linoleic acid, 30° C.
# Procedure: (§1) As controls were used the same medium without addition (positive growth control) and a medium to which only detergent was added. For the test, the propionic acid bacterium strains Propionibacterium freudenreichii ssp. shermanii JS (PJS), DSM 7067, and P. freudenreichii ssp. freudenreichii 131 ([…]) were first cultivated in MRS broths with • 1) no addition • 2) 600 μg/ml linoleic acid • 3) addition of 600 μg/ml linoleic acid from a stock solution containing 5 mg/ml linoleic acid and 1% of Tween 80 preparation in an aqueous solution (final content of Tween […]) • 4) addition of 0.9% of Kotilen and 600 μg/ml linoleic acid micellized according to Example 1 • 5) addition of 0.9% of Kotilen only (not linoleic acid) Each bacterium strain was cultivated in the culture medium twice at 30° C. for 72 h, whereafter each test broth was inoculated with 1% of fresh culture. The test cultures were monitored at 30° C. for 4 days by determining the cell density of the culture as turbidity with a Klett meter. At the end of cultivation (96 h), the amount of formed CLA was determined by gas chromatography, the c9,t11 isomer separately and the other isomers together.
# [2] = tested on: P. freudenreichii ssp. freudenreichii 131 (P131); experiment: Growth of P131 strain in MRS medium containing linoleic acid (turbidity, Klett meter); type: cell-based, Propionibacterium freudenreichii ssp. freudenreichii; conditions: for Growth (cell density of the culture as turbidity, Klett meter): 600 μg/ml linoleic acid, 30° C.
# Procedure: as §1
# PJS cells = experiment: Viable cell concentration in pH-adjusted fermentor culturing of PJS cells with micellized linoleic acid; type: cell-based, Propionibacterium freudenreichii ssp. shermanii
# Procedure: The most efficient way to cultivate propionic acid bacteria on an industrial scale is to do it in a fermentor where the pH of the medium can be maintained optimal for cellular growth. A production process of conjugated linoleic acid by means of growing PJS cells was examined in fermentor cultures the solution volume being 2 liters. The whey permeate broth of Example 2 was used as growth medium. The growth broth contained micellized linoleic acid 400, 600, 1000 or 1400 μg/ml and Kotilen detergent 0.6, 0.9 or 1.5%, respectively. During the cultivation, the pH of the growth medium was maintained at 6.3 with linoleic acid concentrations of 400, 600 and 1000 μg/ml and at 6.5 with linoleic acid concentration of 1400 μg/ml by means of an automatic addition of ammonium solution. The cultivation temperature was 30° C. and the mixing rate was 100 rpm. The concentration of viable propionic acid bacteria cells was determined in buffered sodium lactate agar and the agar dishes were incubated at 30° C. anaerobically for 5 to 7 days. Table 3 compares the CLA production process in a fermentor, with the linoleic acid content in the medium of 400, 600 and 1000 μg/ml, after 94 hour cultivation, and that of 1400 μg/ml, after 108 and 132 hour cultivation.
# breast cancer = conditions: cited from earlier work
# propionic acid bacteria = conditions: even in relatively low concentrations; cited from earlier work
# [3] = tested on: mammary, stomach and colon cancer; conditions: CLA-containing diet, compared with the reference group; cited from earlier work
# cancer cells = conditions: tissue cultures of human cells; cited from earlier work
# [4] = tested on: high density lipoprotein (HDL); conditions: rabbit, in vivo; cited from earlier work
# fatty tissues = conditions: mouse, in vivo; cited from earlier work
compound,measurement,setting,value
"CCCCC/C=C\C/C=C\CCCCCCCC(=O)O [LA, cis-9,trans-12 octadecadienoic acid]",Effect on growth as compared with the control (in words),[1]; 600 μg/ml,inhibited the growth
same,"Growth (cell density of the culture as turbidity, Klett meter)",[1]; 0 h,78
same,"Growth (cell density of the culture as turbidity, Klett meter)",[1]; 24 h,84
same,"Growth (cell density of the culture as turbidity, Klett meter)",[1]; 48 h,96
same,"Growth (cell density of the culture as turbidity, Klett meter)",[1]; 72 h,106
same,"Growth (cell density of the culture as turbidity, Klett meter)",[1]; 96 h,110
same,Effect on growth as compared with the control (in words),[2]; 600 μg/ml,inhibited the growth
same,"Growth (cell density of the culture as turbidity, Klett meter)",[2]; 0 h,80
same,"Growth (cell density of the culture as turbidity, Klett meter)",[2]; 24 h,90
same,"Growth (cell density of the culture as turbidity, Klett meter)",[2]; 48 h,97
same,"Growth (cell density of the culture as turbidity, Klett meter)",[2]; 72 h,107
same,"Growth (cell density of the culture as turbidity, Klett meter)",[2]; 96 h,115
same,cell concentration (cfu/ml),"PJS cells; micellized LA 400 μg/ml, deterg. (Kotilen) 0.6%, 94 h, pH 6.3, 30° C.",1.3 × 10^10 cfu/ml
same,cell concentration (cfu/ml),"PJS cells; micellized LA 600 μg/ml, deterg. (Kotilen) 0.9%, 94 h, pH 6.3, 30° C.",1.2 × 10^10 cfu/ml
same,cell concentration (cfu/ml),"PJS cells; micellized LA 1000 μg/ml, deterg. (Kotilen) 1.5%, 94 h, pH 6.3, 30° C.",1.4 × 10^10 cfu/ml
same,cell concentration (cfu/ml),"PJS cells; micellized LA 1400 μg/ml, deterg. (Kotilen) 1.5%, 108 h, pH 6.5, 30° C.",2.4 × 10^9 cfu/ml
same,cell concentration (cfu/ml),"PJS cells; micellized LA 1400 μg/ml, deterg. (Kotilen) 1.5%, 132 h, pH 6.5, 30° C.",1.3 × 10^10 cfu/ml
same,effect on breast cancer,breast cancer,stimulating effect
same,effect on the growth of propionic acid bacteria,propionic acid bacteria,inhibitory effect
conjugated linoleic acid [CLA],"number of mammary, stomach and colon cancer incidences",[3],reduced
same,development of cancer cells,cancer cells,capable of inhibiting development of cancer cells
same,amount of the good high density lipoprotein (HDL),[4],does not reduce
same,effect on fatty tissues,fatty tissues,split fatty tissues
